In patent publication US8362000B2, “Azetidinyl diamides as monoacylglycerol lipase inhibitors” (Janssen Pharmaceutica NV, priority 2009, dated 2013) one finds 2-AG accumulation, % of vehicle control, IC50 and Kd data, which are given here for 13 compounds.

One assay concerns the target T1, MGL (Rattus norvegicus, UniProt Q8R431).
T1 construct: one g rat brain was homogenized using a Polytron homogenizer; from tissue; host or cells: rat brain homogenate
T1 sequence (Q8R431 1-303): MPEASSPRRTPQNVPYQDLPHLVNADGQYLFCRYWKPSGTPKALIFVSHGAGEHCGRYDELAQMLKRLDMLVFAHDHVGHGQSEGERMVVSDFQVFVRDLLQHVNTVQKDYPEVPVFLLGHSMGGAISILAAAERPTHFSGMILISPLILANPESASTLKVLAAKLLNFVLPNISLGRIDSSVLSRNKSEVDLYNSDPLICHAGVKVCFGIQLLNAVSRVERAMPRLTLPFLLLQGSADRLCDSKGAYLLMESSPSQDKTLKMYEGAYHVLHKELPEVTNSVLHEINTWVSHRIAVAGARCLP
As to the kind of experiment: 2-AG accumulation assay in rat brain homogenate. Type of assay: biochemical. Conditions: rat brain homogenate, 2-AG accumulation as percent of vehicle; for 2-AG accumulation, % of vehicle control at 10 µM: compound 10 μM, read-out: Rat Brain 2AG % VehCntrl (%) @ 10 μM; for 2-AG accumulation, % of vehicle control at 1 µM: compound 1 μM, read-out: Rat Brain 2AG % VehCntrl (%) @ 1 μM.

Assay [1] addresses T2, purified wild type MGL (wt-MGLL 6H-11-313) (Homo sapiens, UniProt Q99685).
T2 sequence (Q99685 1-303): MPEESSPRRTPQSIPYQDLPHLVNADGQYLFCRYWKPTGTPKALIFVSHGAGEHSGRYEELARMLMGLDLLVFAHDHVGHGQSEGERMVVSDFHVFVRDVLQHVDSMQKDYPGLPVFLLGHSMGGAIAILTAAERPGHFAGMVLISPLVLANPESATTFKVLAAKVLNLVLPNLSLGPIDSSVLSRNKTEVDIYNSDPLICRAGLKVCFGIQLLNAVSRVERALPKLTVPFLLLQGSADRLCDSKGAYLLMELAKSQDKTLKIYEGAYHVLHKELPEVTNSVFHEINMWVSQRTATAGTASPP

The next assay addresses T3, mutant MGL (Homo sapiens, UniProt Q99685, L169S/L176S).
T3 sequence (Q99685 1-303 L169S/L176S): T2 sequence (Q99685 1-303) with L169S, L176S
Put plainly: MGL ThermoFluor assay - mutant. Type of assay: binding. As to conditions: read-out: MGL mutant ThermoFluor Kd.

The mark [2] stands for this setting: ThermoFluor thermal stability binding assay.
Where [3] appears, read: ThermoFluor concentration-response.

What is called IC50 is the midpoint of a concentration-inhibition curve. A lower IC50 goes with greater potency. The term Kd denotes the concentration at which binding is half-saturated.

Residue numbers refer to the chain shown, from its start. Like-named read-outs stand apart in the source and are kept apart here.

For `CS(=O)(=O)Nc1cccc(-c2ccc(C(=O)N3CC(N4CCN(C(=O)c5nccs5)CC4)C3)cc2)c1` [Cpd 219, N-[4′-({3-[4-(1,3-Thiazol-2-ylcarbonyl)piperazin-1-yl]azetidin-1-yl}carbonyl)biphenyl-3-yl]methanesulfonamide], the 2-AG accumulation, % of vehicle control at 10 µM at MGL was 851%. This compound also yielded an IC50 in assay [1] of 0.032 µM.
In the case of `O=C(c1ccc2c(-c3ccc(C(F)(F)F)cc3)ncnc2c1)N1CC(N2CCN(C(=O)c3nccs3)CC2)C1` [Cpd 1086], the 2-AG accumulation, % of vehicle control at 1 µM on MGL came to 488%. The half-inhibitory concentration (IC50) in assay [1] came to 0.009 µM.
The matching figures for `O=C(c1ccc(Cc2cccc(C(F)(F)F)c2)cc1)N1CC(N2CCN(C(=O)c3cscn3)CC2)C1` [Cpd 998]: 639% and under 0.005 µM.
As to `O=C(c1ccc2c(c1)CCCN2Cc1ccccc1)N1CC(N2CCN(C(=O)c3nccs3)CC2)C1` [Cpd 370, 1-Benzyl-6-({3-[4-(1,3-thiazol-2-ylcarbonyl)piperazin-1-yl]azetidin-1-yl}carbonyl)-1,2,3,4-tetrahydroquinoline], on MGL, the 2-AG accumulation, % of vehicle control at 1 µM stood at 888%. The Kd on mutant MGL (setting [2]) was 0.001 µM.
The matching figures for `Cc1nc(-c2cccc(Cl)c2)sc1C(=O)N1CC(N2CCN(C(=O)c3cscn3)CC2)C1` [Cpd 1381]: 604% and 0.083 µM.
`Cc1nc(COc2ccc(Cl)cc2)sc1C(=O)N1CC(N2CCN(C(=O)c3nccs3)CC2)C1` [Cpd 965]: on MGL, the 2-AG accumulation, % of vehicle control at 1 µM is 591%. Also, the Kd at mutant MGL (setting [3]) came to 0.035 µM.
On to `O=C(c1ccc(OCc2ccncc2)c(Cl)c1)N1CC(N2CCN(C(=O)c3nccs3)CC2)C1` [Cpd 398, 1-(1-{[3-Chloro-4-(pyridin-4-ylmethoxy)phenyl]carbon-yl}azetidin-3-yl)-4-(1,3-thiazol-2-ylcarbonyl)piperazine], for which the 2-AG accumulation, % of vehicle control at 1 µM on MGL turned out to be 392%. In addition, the Kd on mutant MGL (setting [2]) was determined as 0.0869 µM.
The matching figures for `Cc1cc(-c2ccc(F)c(Cl)c2)ccc1C(=O)N1CC(N2CCN(C(=O)c3ccccc3)CC2)C1` [Cpd 255, 1-{1-[(3′-Chloro-4′-fluoro-3-methylbiphenyl-4-yl)carbonyl]azetidin-3-yl}-4-(phenylcarbonyl)piperazine]: 115% and 0.027 µM.
In the case of `O=C(c1ccc(C(F)(F)c2ccccc2)cc1)N1CC(N2CCN(C(=O)c3nccs3)CC2)C1` [Cpd 986, 1-[1-({4-[Difluoro(phenyl)methyl]phenyl}carbonyl)azetidin-3-yl]-4-(1,3-thiazol-2-ylcarbonyl)piperazine], the 2-AG accumulation, % of vehicle control at 1 µM at MGL worked out at 626%. At mutant MGL (setting [3]), the Kd worked out at 0.005 µM.
As to `O=C(c1ccc(OCc2ccncc2)cc1)N1CC(N2CCN(C(=O)c3nccs3)CC2)C1` [Cpd 403, 1-(1-{[4-(Pyridin-4-ylmethoxy)phenyl]carbonyl}azetidin-3-yl)-4-(1,3-thiazol-2-ylcarbonyl)piperazine], the 2-AG accumulation, % of vehicle control at 1 µM on MGL came to 188%. Moreover, the Kd on mutant MGL (setting [2]) was found to be 0.338 µM.
`O=C(c1ccccc1)N1CCN(C2CN(C(=O)c3ccc(-c4ccccc4)cc3F)C2)CC1` [Cpd 614]: the 2-AG accumulation, % of vehicle control at 1 µM on MGL turned out to be 87%. Moreover, the Kd at mutant MGL (setting [3]) amounted to 0.066 µM.
Turning to `O=C(c1cc2c(C(F)(F)F)cccc2s1)N1CC(N2CCN(C(=O)c3nccs3)CC2)C1` [Cpd 327, 1-(1,3-Thiazol-2-ylcarbonyl)-4-(1-{[4-(trifluoromethyl)-1-benzothiophen-2-yl]carbonyl}azetidin-3-yl)piperazine], the 2-AG accumulation, % of vehicle control at 1 µM on MGL was determined as 904%. For the same compound, on mutant MGL (setting [2]), the Kd came out at 0.0137 µM.
For `O=C(c1cc2ccc(C(F)(F)F)cc2s1)N1CC(N2CCN(C(=O)c3nccs3)CC2)C1` [Cpd 323, 1-(1,3-Thiazol-2-ylcarbonyl)-4-(1-{[6-(trifluoromethyl)-1-benzothiophen-2-yl]carbonyl}azetidin-3-yl)piperazine], the 2-AG accumulation, % of vehicle control at 10 µM on MGL stood at 494%. For the same compound, on mutant MGL (setting [2]), the Kd amounted to 0.0013 µM.
